Three compounds from patent publication US7691851B2, “Metalloprotease inhibitors containing a heterocyclic moiety” (Alantos Pharmaceuticals Holding, Inc., priority 2007, dated 2010) can be followed below.

This assay addresses T1, MMP-13 (Homo sapiens, UniProt P45452).
T1 construct: 10 μL of a 50 nM stock solution of catalytic domain of MMP-13 enzyme; purchased Invitek (Berlin) 30100812
Briefly: Assay for determining MMP-13 inhibition (fluorescent substrate). It counts as biochemical. As to conditions: catalytic domain of MMP-13. The method, then: The inhibiting activity towards different metalloproteases of the heterocyclic metalloprotease inhibiting compounds of the present invention may be measured using any suitable assay known in the art. A standard in vitro assay for measuring the metalloprotease inhibiting activity is described in Examples 1700 to 1704.
The typical assay for MMP-13 activity is carried out in assay buffer comprised of 50 mM Tris, pH 7.5, 150 mM NaCl, 5 mM CaCl2 and 0.05% Brij-35. Different concentrations of tested compounds are prepared in assay buffer in 50 μL aliquots. 10 μL of a 50 nM stock solution of catalytic domain of MMP-13 enzyme (produced by Alantos or commercially available from Invitek (Berlin), Cat.# 30100812) is added to the compound solution. The mixture of enzyme and compound in assay buffer is thoroughly mixed and incubated for 10 min at room temperature. Upon the completion of incubation, the assay is started by addition of 40 μL of a 12.5 μM stock solution of MMP-13 fluorescent substrate (Calbiochem, Cat. No. 444235). The time-dependent increase in fluorescence is measured at the 320 nm excitation and 390 nm emission by automatic plate multireader. The IC50 values are calculated from the initial reaction rates.

Where [1] appears, read: compounds stated as lower than 100 nM.

In turn, `Cc1c(C(=O)O)ccc2c1CC[C@@H]2NC(=O)c1cc(C(=O)NCc2ccc3c(c2)-n2c(noc2=O)CO3)nc2ccnn12` [Example 1/2] returned an IC50 (range class, units printed within the value (nM to μM)) of 100 to 20000 nM. `Cc1c(C(=O)O)ccc2c1CC[C@@H]2NC(=O)c1cc(C(=O)NCc2ccc3c(c2)NC(=S)CO3)nc2ccnn12` [1/1]: the IC50 under setting [1] is below 100 nM.

On to `Cc1c(C(=O)O)ccc2c1CC[C@@H]2NC(=O)c1cc(C(=O)NCc2ccc3c(c2)-n2cnnc2CO3)nc2ccnn12` [Example 1], for which the IC50 under setting [1] was below 100 nM.
